Reference: ChEMBL document CHEMBL4507287, “Data for DCP probe MRL-650” (2021)

What was measured:
[1] = target: 5-hydroxytryptamine receptor 3A (Homo sapiens) (UniProt P46098); details: Compound concentration 10.0 uM
[2] = tested on: Tyrosine-protein kinase ABL1 (Homo sapiens), P00519 [M351T]; details: Compound concentration 1000.0 nM
[3] = target: Citron Rho-interacting kinase (Homo sapiens) (UniProt O14578); details: Compound concentration 1000.0 nM
[4] = target: Serine/threonine-protein kinase LATS1 (Homo sapiens) (UniProt O95835); details: Compound concentration 1000.0 nM
[5] = target: Serine/threonine-protein kinase NIM1 (Homo sapiens) (UniProt Q8IY84); details: Compound concentration 1000.0 nM
[6] = target: Mitogen-activated protein kinase 8 (Homo sapiens) (UniProt P45983); details: Compound concentration 1000.0 nM
[7] = target: Serine/threonine-protein kinase WNK1 (Homo sapiens) (UniProt Q9H4A3); details: Compound concentration 1000.0 nM
[8] = target: Cytoplasmic tyrosine-protein kinase BMX (Homo sapiens) (UniProt P51813); details: Compound concentration 1000.0 nM
[9] = target: Serine/threonine-protein kinase Sgk2 (Homo sapiens) (UniProt Q9HBY8); details: Compound concentration 1000.0 nM
[10] = target: Mu-type opioid receptor (Homo sapiens) (UniProt P35372); details: Compound concentration 10.0 uM
[11] = target: Serine/threonine-protein kinase SIK3 (Homo sapiens) (UniProt Q9Y2K2); details: Compound concentration 1000.0 nM
[12] = target: Epidermal growth factor receptor (Homo sapiens) (UniProt P00533); details: Compound concentration 1000.0 nM
[13] = target: Ribosomal protein S6 kinase alpha-5 (Homo sapiens) (UniProt O75582); details: Compound concentration 1000.0 nM
[14] = target: Mitogen-activated protein kinase kinase kinase kinase 4 (Homo sapiens) (UniProt O95819); details: Compound concentration 1000.0 nM
[15] = target: Eukaryotic translation initiation factor 2-alpha kinase 1 (Homo sapiens) (UniProt Q9BQI3); details: Compound concentration 1000.0 nM
[16] = tested on: Phosphatidylinositol 4,5-bisphosphate 3-kinase catalytic subunit alpha isoform (Homo sapiens), P42336 [M1043I]; details: Compound concentration 1000.0 nM
[17] = tested on: Tyrosine-protein kinase ABL1 (Homo sapiens), P00519 [F317L]; details: Compound concentration 1000.0 nM
[18] = target: Tyrosine-protein kinase Blk (Homo sapiens) (UniProt P51451); details: Compound concentration 1000.0 nM
[19] = target: SNF-related serine/threonine-protein kinase (Homo sapiens) (UniProt Q9NRH2); details: Compound concentration 1000.0 nM
[20] = target: Homeodomain-interacting protein kinase 1 (Homo sapiens) (UniProt Q86Z02); details: Compound concentration 1000.0 nM
[21] = target: Receptor tyrosine-protein kinase erbB-3 (Homo sapiens) (UniProt P21860); details: Compound concentration 1000.0 nM
[22] = target: Muscarinic acetylcholine receptor M3 (Homo sapiens) (UniProt P20309); details: Compound concentration 10.0 uM
[23] = target: Fibroblast growth factor receptor 1 (Homo sapiens) (UniProt P11362); details: Compound concentration 1000.0 nM
[24] = target: Serine/threonine-protein kinase MRCK gamma (Homo sapiens) (UniProt Q6DT37); details: Compound concentration 1000.0 nM
[25] = target: Testis-specific serine/threonine-protein kinase 1 (Homo sapiens) (UniProt Q9BXA7); details: Compound concentration 1000.0 nM
[26] = tested on: Tyrosine-protein kinase ABL1 (Homo sapiens), P00519 [H396P]; details: Compound concentration 1000.0 nM
[27] = target: Platelet-derived growth factor receptor beta (Homo sapiens) (UniProt P09619); details: Compound concentration 1000.0 nM
[28] = target: Dual specificity mitogen-activated protein kinase kinase 7 (Homo sapiens) (UniProt O14733); details: Compound concentration 1000.0 nM
[29] = target: Phosphatidylinositol 3-kinase catalytic subunit type 3 (Homo sapiens) (UniProt Q8NEB9); details: Compound concentration 1000.0 nM
[30] = target: Ephrin type-B receptor 6 (Homo sapiens) (UniProt O15197); details: Compound concentration 1000.0 nM
[31] = target: Vascular endothelial growth factor receptor 2 (Homo sapiens) (UniProt P35968); details: Compound concentration 1000.0 nM
[32] = tested on: Hepatocyte growth factor receptor (Homo sapiens), P08581 [Y1235D]; details: Compound concentration 1000.0 nM
[33] = target: RAC-beta serine/threonine-protein kinase (Homo sapiens) (UniProt P31751); details: Compound concentration 1000.0 nM
[34] = target: Ribosomal protein S6 kinase alpha-2 (Homo sapiens) (UniProt Q15349); details: Compound concentration 1000.0 nM
[35] = target: Testis-specific serine/threonine-protein kinase 3 (Homo sapiens) (UniProt Q96PN8); details: Compound concentration 1000.0 nM
[36] = target: Bone morphogenetic protein receptor type-2 (Homo sapiens) (UniProt Q13873); details: Compound concentration 1000.0 nM
[37] = tested on: Receptor-type tyrosine-protein kinase FLT3 (Homo sapiens), P36888 [UNDEFINED MUTATION]; details: Compound concentration 1000.0 nM
[38] = target: Tyrosine-protein kinase JAK1 (Homo sapiens) (UniProt P23458); details: Compound concentration 1000.0 nM
[39] = target: Cyclin-dependent kinase 19 (Homo sapiens) (UniProt Q9BWU1); details: Compound concentration 1000.0 nM
[40] = target: Serine/threonine-protein kinase MAK (Homo sapiens) (UniProt P20794); details: Compound concentration 1000.0 nM
[41] = target: Interleukin-1 receptor-associated kinase 1 (Homo sapiens) (UniProt P51617); details: Compound concentration 1000.0 nM
[42] = target: Phosphatidylinositol 4-kinase beta (Homo sapiens) (UniProt Q9UBF8); details: Compound concentration 1000.0 nM
[43] = target: Protein kinase C theta type (Homo sapiens) (UniProt Q04759); details: Compound concentration 1000.0 nM
[44] = target: Serine/threonine-protein kinase Nek4 (Homo sapiens) (UniProt P51957); details: Compound concentration 1000.0 nM
[45] = target: Cyclin-dependent kinase 9 (Homo sapiens) (UniProt P50750); details: Compound concentration 1000.0 nM

Sequence of Homeodomain-interacting protein kinase 1 (Homo sapiens) (Q86Z02 whole entry, looked up): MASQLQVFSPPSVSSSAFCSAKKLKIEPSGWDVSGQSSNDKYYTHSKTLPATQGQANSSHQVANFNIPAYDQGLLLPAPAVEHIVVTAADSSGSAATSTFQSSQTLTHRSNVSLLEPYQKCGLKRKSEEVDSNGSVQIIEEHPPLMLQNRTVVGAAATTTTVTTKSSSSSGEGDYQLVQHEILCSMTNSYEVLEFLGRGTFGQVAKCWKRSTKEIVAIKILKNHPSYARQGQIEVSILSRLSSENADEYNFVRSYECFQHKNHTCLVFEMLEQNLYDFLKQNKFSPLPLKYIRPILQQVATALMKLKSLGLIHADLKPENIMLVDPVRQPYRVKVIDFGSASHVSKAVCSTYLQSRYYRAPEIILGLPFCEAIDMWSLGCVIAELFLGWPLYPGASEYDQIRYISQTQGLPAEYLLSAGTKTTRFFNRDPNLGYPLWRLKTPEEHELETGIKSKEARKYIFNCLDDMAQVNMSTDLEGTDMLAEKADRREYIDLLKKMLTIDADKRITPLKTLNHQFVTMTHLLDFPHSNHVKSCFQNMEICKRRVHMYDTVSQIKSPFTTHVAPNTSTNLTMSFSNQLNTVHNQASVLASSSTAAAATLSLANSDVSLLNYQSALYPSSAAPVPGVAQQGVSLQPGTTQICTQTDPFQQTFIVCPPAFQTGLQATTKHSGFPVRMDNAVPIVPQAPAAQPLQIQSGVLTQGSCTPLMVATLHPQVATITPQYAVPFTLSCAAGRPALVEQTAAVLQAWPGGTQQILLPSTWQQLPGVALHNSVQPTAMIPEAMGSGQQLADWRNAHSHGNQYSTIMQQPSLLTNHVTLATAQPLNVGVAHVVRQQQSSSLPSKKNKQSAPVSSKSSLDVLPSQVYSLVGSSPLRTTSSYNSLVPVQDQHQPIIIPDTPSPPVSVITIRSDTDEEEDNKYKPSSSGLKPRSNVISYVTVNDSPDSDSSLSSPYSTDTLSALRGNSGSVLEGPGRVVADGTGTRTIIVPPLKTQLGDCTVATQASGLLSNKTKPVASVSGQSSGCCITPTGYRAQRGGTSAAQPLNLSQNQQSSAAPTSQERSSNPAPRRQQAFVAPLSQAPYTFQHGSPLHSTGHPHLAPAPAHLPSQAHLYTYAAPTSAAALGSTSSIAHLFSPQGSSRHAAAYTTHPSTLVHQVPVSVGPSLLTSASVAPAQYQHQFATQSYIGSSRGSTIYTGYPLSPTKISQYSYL
Sequence of Ribosomal protein S6 kinase alpha-5 (Homo sapiens) (O75582 whole entry, looked up): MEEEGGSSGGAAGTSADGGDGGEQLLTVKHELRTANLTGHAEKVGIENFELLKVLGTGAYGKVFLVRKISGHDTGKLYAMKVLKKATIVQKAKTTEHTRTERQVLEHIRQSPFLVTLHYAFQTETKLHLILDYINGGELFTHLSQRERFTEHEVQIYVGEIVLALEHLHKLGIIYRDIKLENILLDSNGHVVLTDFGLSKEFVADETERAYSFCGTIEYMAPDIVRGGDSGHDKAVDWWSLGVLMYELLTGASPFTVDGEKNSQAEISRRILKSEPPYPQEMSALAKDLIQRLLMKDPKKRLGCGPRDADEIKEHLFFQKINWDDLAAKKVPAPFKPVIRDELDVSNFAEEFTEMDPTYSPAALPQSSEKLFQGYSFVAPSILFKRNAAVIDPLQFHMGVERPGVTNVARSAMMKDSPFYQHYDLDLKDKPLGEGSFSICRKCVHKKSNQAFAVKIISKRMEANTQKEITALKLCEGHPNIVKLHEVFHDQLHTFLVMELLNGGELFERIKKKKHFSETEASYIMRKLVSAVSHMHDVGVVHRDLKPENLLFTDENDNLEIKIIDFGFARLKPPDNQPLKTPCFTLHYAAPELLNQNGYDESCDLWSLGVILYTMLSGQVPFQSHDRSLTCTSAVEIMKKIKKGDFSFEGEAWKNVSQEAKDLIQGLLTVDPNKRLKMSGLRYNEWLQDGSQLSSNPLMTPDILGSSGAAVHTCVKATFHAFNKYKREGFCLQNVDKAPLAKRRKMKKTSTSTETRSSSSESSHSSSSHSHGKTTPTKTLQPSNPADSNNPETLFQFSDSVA
Sequence of Receptor tyrosine-protein kinase erbB-3 (Homo sapiens) (P21860 whole entry): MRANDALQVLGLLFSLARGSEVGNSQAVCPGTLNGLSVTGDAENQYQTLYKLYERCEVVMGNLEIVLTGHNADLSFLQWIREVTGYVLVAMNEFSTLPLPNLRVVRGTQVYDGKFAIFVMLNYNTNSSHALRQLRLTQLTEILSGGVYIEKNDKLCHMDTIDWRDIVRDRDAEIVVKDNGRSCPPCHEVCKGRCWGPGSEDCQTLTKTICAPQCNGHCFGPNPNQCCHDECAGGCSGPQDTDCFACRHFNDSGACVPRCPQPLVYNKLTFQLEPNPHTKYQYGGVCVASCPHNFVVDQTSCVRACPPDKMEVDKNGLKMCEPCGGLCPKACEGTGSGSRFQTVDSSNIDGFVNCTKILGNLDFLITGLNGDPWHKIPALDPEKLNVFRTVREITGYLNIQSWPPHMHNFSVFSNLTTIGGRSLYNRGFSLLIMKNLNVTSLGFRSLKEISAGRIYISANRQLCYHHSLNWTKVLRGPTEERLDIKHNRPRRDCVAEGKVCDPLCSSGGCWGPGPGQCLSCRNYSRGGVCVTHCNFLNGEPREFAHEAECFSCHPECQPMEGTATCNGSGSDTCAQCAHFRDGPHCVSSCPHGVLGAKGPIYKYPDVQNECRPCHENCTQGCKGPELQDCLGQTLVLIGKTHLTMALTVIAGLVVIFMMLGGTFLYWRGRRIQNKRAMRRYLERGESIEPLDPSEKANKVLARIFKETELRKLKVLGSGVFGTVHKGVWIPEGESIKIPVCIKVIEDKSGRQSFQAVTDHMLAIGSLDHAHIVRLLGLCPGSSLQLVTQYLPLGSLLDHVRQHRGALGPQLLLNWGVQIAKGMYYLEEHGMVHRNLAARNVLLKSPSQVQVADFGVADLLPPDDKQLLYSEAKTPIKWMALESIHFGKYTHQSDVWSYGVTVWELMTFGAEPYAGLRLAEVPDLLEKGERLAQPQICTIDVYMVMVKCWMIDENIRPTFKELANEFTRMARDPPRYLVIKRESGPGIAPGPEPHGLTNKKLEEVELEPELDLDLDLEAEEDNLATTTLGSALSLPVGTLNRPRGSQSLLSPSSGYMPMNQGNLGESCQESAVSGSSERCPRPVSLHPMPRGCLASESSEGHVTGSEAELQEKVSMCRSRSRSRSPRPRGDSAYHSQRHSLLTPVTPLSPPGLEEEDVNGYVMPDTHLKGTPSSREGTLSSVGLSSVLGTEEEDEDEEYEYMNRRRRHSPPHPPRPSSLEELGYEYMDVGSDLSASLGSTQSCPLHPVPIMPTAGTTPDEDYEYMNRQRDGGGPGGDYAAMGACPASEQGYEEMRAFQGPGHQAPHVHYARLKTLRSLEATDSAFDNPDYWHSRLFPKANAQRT
Sequence of Serine/threonine-protein kinase MRCK gamma (Homo sapiens) (Q6DT37 whole entry): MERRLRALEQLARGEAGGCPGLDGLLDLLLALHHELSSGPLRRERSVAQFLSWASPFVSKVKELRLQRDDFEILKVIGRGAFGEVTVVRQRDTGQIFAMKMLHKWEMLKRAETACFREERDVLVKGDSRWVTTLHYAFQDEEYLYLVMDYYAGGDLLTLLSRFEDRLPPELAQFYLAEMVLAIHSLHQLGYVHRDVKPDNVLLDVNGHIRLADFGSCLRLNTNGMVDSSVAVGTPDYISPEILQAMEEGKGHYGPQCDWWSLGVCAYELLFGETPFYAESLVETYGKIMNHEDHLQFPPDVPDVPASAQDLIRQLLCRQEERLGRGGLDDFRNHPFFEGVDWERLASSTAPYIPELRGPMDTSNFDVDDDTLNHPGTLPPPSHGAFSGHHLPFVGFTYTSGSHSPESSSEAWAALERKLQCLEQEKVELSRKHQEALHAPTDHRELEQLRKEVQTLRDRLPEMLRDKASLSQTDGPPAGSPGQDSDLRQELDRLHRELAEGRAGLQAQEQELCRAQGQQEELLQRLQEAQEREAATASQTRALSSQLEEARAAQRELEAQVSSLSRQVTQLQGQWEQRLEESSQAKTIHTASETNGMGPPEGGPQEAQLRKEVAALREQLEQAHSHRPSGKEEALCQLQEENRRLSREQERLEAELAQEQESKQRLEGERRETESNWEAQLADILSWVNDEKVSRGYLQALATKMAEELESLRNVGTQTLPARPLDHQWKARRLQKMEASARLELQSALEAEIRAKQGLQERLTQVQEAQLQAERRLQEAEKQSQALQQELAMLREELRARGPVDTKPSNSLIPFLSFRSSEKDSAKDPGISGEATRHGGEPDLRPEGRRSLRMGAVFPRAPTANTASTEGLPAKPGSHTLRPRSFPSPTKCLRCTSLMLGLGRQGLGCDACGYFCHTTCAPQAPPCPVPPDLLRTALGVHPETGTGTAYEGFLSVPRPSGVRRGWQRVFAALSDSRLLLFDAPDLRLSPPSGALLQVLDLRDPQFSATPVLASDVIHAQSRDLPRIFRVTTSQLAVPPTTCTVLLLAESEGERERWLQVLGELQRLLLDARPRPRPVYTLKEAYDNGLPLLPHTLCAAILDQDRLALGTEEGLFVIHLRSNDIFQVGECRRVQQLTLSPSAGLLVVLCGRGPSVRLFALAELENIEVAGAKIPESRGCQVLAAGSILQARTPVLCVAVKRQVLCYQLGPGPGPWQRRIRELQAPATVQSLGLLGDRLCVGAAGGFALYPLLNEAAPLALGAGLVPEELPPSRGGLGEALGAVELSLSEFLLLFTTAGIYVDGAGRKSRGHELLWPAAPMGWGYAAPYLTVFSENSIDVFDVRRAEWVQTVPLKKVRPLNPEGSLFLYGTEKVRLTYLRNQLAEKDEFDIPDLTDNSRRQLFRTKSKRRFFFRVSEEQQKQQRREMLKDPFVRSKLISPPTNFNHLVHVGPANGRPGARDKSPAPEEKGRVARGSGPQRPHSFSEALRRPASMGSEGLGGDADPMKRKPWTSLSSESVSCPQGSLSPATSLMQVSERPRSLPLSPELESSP

CC(=O)Nc1c(C(C)=O)c(=O)n(C)c2nc(-c3ccc(Cl)cc3Cl)c(-c3ccc(Cl)cc3)cc12 [NAPHTHYRIDINONE]
inactive: inhibition [1] 5.67% | residual activity [2] 100% | residual activity [3] 100% | residual activity [4] 98% | residual activity [5] 100% | residual activity [6] 71% | residual activity [7] 100% | residual activity [8] 100% | residual activity [9] 100% | inhibition [10] 8.16% | residual activity [11] 100% | residual activity [12] 100% | residual activity [13] 86% | residual activity [14] 100% | residual activity [15] 68% | residual activity [16] 100% | residual activity [17] 100% | residual activity [18] 100% | residual activity [19] 78% | residual activity [20] 99% | residual activity [21] 100% | inhibition [22] -6.59% | residual activity [23] 100% | residual activity [24] 100% | residual activity [25] 100% | residual activity [26] 100% | residual activity [27] 100% | residual activity [28] 100% | residual activity [29] 100% | residual activity [30] 100% | residual activity [31] 94% | residual activity [32] 100% | residual activity [33] 100% | residual activity [34] 100% | residual activity [35] 100% | residual activity [36] 100% | residual activity [37] 100% | residual activity [38] 100% | residual activity [39] 100% | residual activity [40] 100% | residual activity [41] 97% | residual activity [42] 100% | residual activity [43] 100% | residual activity [44] 100% | residual activity [45] 100%

CC(=O)c1c(NS(C)(=O)=O)c2cc(-c3ccc(Cl)cc3)c(-c3ccc(Cl)cc3Cl)nc2n(C)c1=O [MRL-CB1-NC]
inactive: inhibition [1] 3.2% | residual activity [2] 87% | residual activity [3] 96% | residual activity [4] 81% | residual activity [5] 81% | residual activity [6] 63% | residual activity [7] 88% | residual activity [8] 100% | residual activity [9] 92% | inhibition [10] 34.4% | residual activity [11] 100% | residual activity [12] 100% | residual activity [13] 72% | residual activity [14] 100% | residual activity [15] 83% | residual activity [16] 100% | residual activity [17] 75% | residual activity [18] 100% | residual activity [19] 98% | residual activity [20] 96% | residual activity [21] 85% | inhibition [22] 4.36% | residual activity [23] 97% | residual activity [24] 100% | residual activity [25] 100% | residual activity [26] 100% | residual activity [27] 95% | residual activity [28] 100% | residual activity [29] 93% | residual activity [30] 100% | residual activity [31] 82% | residual activity [32] 95% | residual activity [33] 100% | residual activity [34] 100% | residual activity [35] 100% | residual activity [36] 100% | residual activity [37] 87% | residual activity [38] 93% | residual activity [39] 100% | residual activity [40] 93% | residual activity [41] 92% | residual activity [42] 74% | residual activity [43] 100% | residual activity [44] 100% | residual activity [45] 91%
